Measurements reported in patent US20260234173A1, “STRUCTURED MOLECULAR VECTORS FOR ANTI-INFLAMMATORY COMPOUNDS AND USES THEREOF” (Universite Claude Bernard Lyon 1, priority 2019, published 2026).

How the values were obtained:
[1] = system: NR8383 cells; settings: LPS 100 ng/mL; compound 10, 100, 500, 1,000 nM within <2 min after LPS; 5 hours
Experimental: NR8383 cells were seeded at 53,000 cells/cm^2 in T75 flasks, the medium consisted in Ham's F12K medium completed with 1% pen/strep, and 15% fetal bovine serum. When they reached confluence, they were treated with LPS (Sigma, ref 055: B55) at the concentration of 100 ng/mL, and, within less than 2 min after, with one of the following condition: DECA-EA-Pn at 10, 100, 500 or 1,000 nM, or EPA-EA-Pn at 10, 100, 500 or 1,000 ng/mL. Cells were harvested 5 hours later, and the level of IL-6 mRNA was measured by RT-qPCR as in B.2.1.4, with primers listed in table 1.

[2] = system: hippocampal LTP in rats subjected to Pilo-SE; experiment: Hippocampal LTP in slices from Pilo-SE rats treated in vivo (i.p. or per os); design: species or system rat
Experimental: (§1) In this experiment we used male Sprague-Dawley rats (ENVIGO, Netherlands). Pups were received at 14 day-old (postnatal day 14 (P14)) with their foster mother, and were maintained in groups of 10 in plastic cages (405 mm×255 mm×197 mm) with free access to food and water. All animal procedures are in accordance with the guidelines of the Animal Care and Use Committee of the University Claude Bernard Lyon 1.
(§2) All injected solutions were prepared in sterile saline (0.9% w/v). At weaning (postnatal day 20 (P20)), Sprague-Dawley male rat pups were first injected i.p. with lithium chloride (127 mg/Kg; Sigma-Aldrich), to decrease the dose of pilocarpine needed to trigger Status Epilepticus (SE). Scopolamine methylnitrate (1 mg/Kg; Sigma-Aldrich) was injected s.c. 18 h later, to alleviate peripheral cholinergic adverse side effects. Pilocarpine hydrochloride (25 mg/Kg; Sigma-Aldrich) was injected i.p. 30 min later, to induce SE. […] The rats were placed on a heated pad, under continuous observation, until they recovered from sedation. Following recovery, the rats were returned to the nursing mother until P23. Control rats only received saline injections. All rats were then housed in groups of 10 and weighed daily, during the 5 following days, to control for food intake, and then twice weekly until the end of experiment (three weeks post SE).
(§3) At P28-38, Sprague-Dawley rats were anesthetized with isoflurane, the forebrain was removed and placed in ice cold standard artificial cerebrospinal fluid (ACSF), consisting of (in mM): 124 NaCl, 5 KCl, 1.25 Na2HPO4, 2 MgSO4, 2 CaCl2), 26 NaHCO3, supplemented with 10 D-glucose, and bubbled with 95% O2 and 5% CO2. Hippocampal transverse slices were cut into 350 μm thick sections, using a vibratome (Leica VT1000S), and incubated in ACSF at room temperature for at least 1 h, before the transfer to the recording chamber. The ACSF used for perfusion was supplemented with picrotoxin (100 μM; Sigma-Aldrich), to block GABA-A receptors and therefore to facilitate the induction of NMDA receptors-dependent Long-Term Potentiation (LTP). CA1 pyramidal cells were visualized with a Zeiss Axioskop 2, equipped with a X40 objective, using infrared video microscopy and differential interference contrast optics. Whole-cell recordings from pyramidal neurons in the CA1 layer were obtained with patch electrodes, which were filled with a solution containing (in mM): 120 potassium gluconate, 20 KCl, 0.2 EGTA, 2 MgCl2, 10 HEPES, 4 Na2ATP, 0.3 Tris-GTP and 14 mM phosphocreatine (pH 7.3, adjusted with KOH). Drugs were applied in the bath of the hippocampal slices. Electrode resistances ranged from 3-5 MΩ. Series resistance was continually monitored, and experiments were discarded if it changed by >20%.
Capillary glass pipettes filled with ACSF and connected to an Iso-Flex stimulus isolation unit (A.M.P.I.) were placed in stratum radiatum, to evoke excitatory postsynaptic potentials (EPSPs) in CA1 pyramidal neurons. Cells were held at −70 mV to record EPSPs, and the stimulation strength was set to evoke EPSPs between 5-8 mV. LTP was induced by the theta burst pairing (TBP) protocol, which consisted of EPSPs paired with single back-propagating action potentials (b-APs), timed so that the b-AP (~15 ms delay) occurred at the peak of the EPSPs, as measured in the soma. A single burst contained five pairs delivered at 100 Hz and ten bursts were delivered at 5 Hz per sweep. Three sweeps were delivered at 10 s intervals for a total of 30 bursts (150 b-AP-EPSP pairs). The b-APs were elicited by direct somatic current injection (1 ms, 1-2 nA). This induction protocol was always applied within 20 min of achieving whole-cell configuration, to avoid “wash-out” of LTP.

[3] = Metabolic fate of SSL-X1 in the digestive tract of rats after per os administration; type: in vivo; settings: 227 μg lipid phosphorus per os, sacrificed 5, 8 and 36 hours after administration
[4] = system: SE-induced neuroinflammation (hippocampus and ventral limbic region); experiment: Neuroinflammatory response induced by status epilepticus in rats, per os SSL-X1; type: in vivo, rat; settings: 100 mg/Kg per os 1 h after onset of SE; hippocampus and ventral limbic region 24 h after SE; 21-day-old rats
From the text: In these experiments, 21-day-old Sprague Dawley rats (ENVIGO, The NETHERLAND) were subjected to pilocarpine-induced status epilepticus (SE) as described below in details (§ B.3). Three groups of rats were constituted: (i) CTRL-NaCl, i.e. control rats that just received NaCl each time a treatment was given in the other groups of rats; (ii) SE-NaCl, i.e. rats that were subjected to SE and that received NaCl per os instead of SSL-X1; (iii) SE-SSL-X1, i.e. rats that were subjected to SE and that were administered with SSL-X1 vector (100 mg/Kg) per os 1 h after the onset of SE. The vectors were dissolved in 100 μL of NaCl. Due to their hydrophobic nature, the preparation was emulsified until complete dissolution of the lipid vector. Twenty-four hours later, rats were sacrificed using a lethal injection of pentobarbital (250 mg/Kg; i.p.) and brain tissues, i.e. the hippocampus (HI) and the ventral limbic region (VLR, which includes the amygdala, the piriform and the insular agranular cortices) were collected and processed as mentioned above (§ B.2.2). Analysis of the expression level of the key markers of neuroinflammation was performed by RT-qPCR as described above using the primer pairs shown in Table 1. […]

[5] = system: CA1 pyramidal neurons in hippocampal slices from rats subjected to Pilo-SE; experiment: Hippocampal LTP in slices from Pilo-SE rats, compound perfused in the bath (ex vivo); type: cell-based, rat; settings: slices 1-2 weeks post Pilo-SE
Experimental: as §1, §2, §3
Capillary glass pipettes filled with ACSF and connected to an Iso-Flex stimulus isolation unit (A.M.P.I.) were placed in stratum radiatum, to evoke excitatory postsynaptic potentials (EPSPs) in CA1 pyramidal neurons. Cells were held at −70 mV to record EPSPs, and the stimulation strength was set to evoke EPSPs between 5-8 mV. LTP was induced by the theta burst pairing (TBP) protocol, which consisted of EPSPs paired with single back-propagating action potentials (b-APs), timed so that the b-AP (~15 ms delay) occurred at the peak of the EPSPs, as measured in the soma. A single burst contained five pairs delivered at 100 Hz and ten bursts were delivered at 5 Hz per sweep. Three sweeps were delivered at 10 s intervals for a total of 30 bursts (150 b-AP-EPSP pairs). […]

[6] = Hydrosolubility compared with synaptamide; type: physicochemical
[7] = system: LPS-induced neuroinflammation (hippocampus and neocortex); experiment: LPS-induced neuroinflammation in vivo in rats (RT-qPCR, Neuroinflammation Index); design: species or system rat; settings: 6 h post-LPS
[8] = system: Pilo-SE-induced inflammation in the hippocampus; experiment: Resolution of inflammation in hippocampus following pilocarpine-induced status epilepticus (Pilo-SE); type: in vivo, rat; settings: 2 mg/kg i.p. after 2 h of SE; hippocampus 9 h post-SE; 42-day-old rats
Experimental: Male Sprague-Dawley rats (Envigo, The Netherlands) were subjected to Pilo-SE at 42 days of age (185 g). SE was triggered by pilocarpine hydrochlorate (350 mg/kg, i.p.), 30 min after the administration of scopolamine methylnitrate (1 mg/kg, s.c.), used to reduce peripheral side effects of pilocarpine. After 2 h of continuous SE, rats were administered with diazepam (10 mg/kg, i.p.) to stop SE, and then immediately treated with SYN (2 mg/kg, i.p.), SYN-Pn (2 mg/kg, i.p.) in 300 μL of NaCl. Non-treated rats subjected to Pilo-SE were injected with 300 μL of NaCl (i.p.) instead of SYN or SYN-Pn. All rats received a second administration of diazepam (5 mg/kg, s.c.), 1 h after the first one, and sacrificed 9 h post-SE. The brains were collected, the hippocampus microdissected on ice, the RNA extracted and RT-qPCR performed as described above using the primer pairs shown in Table 1. The time at which rats were sacrificed was chosen based on our preliminary experiments that allowed us to determine that the peak of brain inflammation was observed 7-12 hours after the onset of SE.

[9] = system: epileptic rats (post Pilo-SE); experiment: Morris water maze (MWM) spatial learning in epileptic rats; type: in vivo, rat; settings: epileptic rats injected during the first week post-SE, tested 5 weeks post-SE, versus saline
Experimental: All injected solutions were prepared in sterile saline (0.9% w/v). At weaning (postnatal day 20 (P20)), Sprague-Dawley male rat pups were first injected i.p. with lithium chloride (127 mg/Kg; Sigma-Aldrich), to decrease the dose of pilocarpine needed to trigger Status Epilepticus (SE). Scopolamine methylnitrate (1 mg/Kg; Sigma-Aldrich) was injected s.c. 18 h later, to alleviate peripheral cholinergic adverse side effects. Pilocarpine hydrochloride (25 mg/Kg; Sigma-Aldrich) was injected i.p. 30 min later, to induce SE. After 30 min of continuous behavioral SE, diazepam (Valium®, Roche) was injected i.p. at 10 mg/Kg, to promote survival and initiate cessation of behavioral seizures, that completely stopped after a second s.c. injection of diazepam, given 90 min later at the dose of 5 mg/Kg. The rats were placed on a heated pad, under continuous observation, until they recovered from sedation. Following recovery, the rats were returned to the nursing mother until P23. Control rats only received saline injections. […]
Spatial learning ability was measured at 5 weeks post-SE by the Morris water maze (MWM). […]
The statistical analyses were performed using SigmaPlot software version 12. […] For MWM test, data were analyzed by two-way repeated measures ANOVA followed by Fisher LSD post hoc tests to compare differences between groups at several time points.

[10] = 5 mg/kg i.p., 1 h after cessation of SE then daily
[11] = 2 mg/kg i.p., 1 h after cessation of SE then daily

CCCCCCCCCC(=O)O.NCCO.O=[PH](O)O [DECA-EA-Pn, decanoic acid ethanolamine phosphonate]
induction of IL-6 mRNA levels [1]: significantly reduced | LTP magnitude (EPSP amplitude, % of baseline) [2, 10]: 130.3±7%

CC/C=C\C/C=C\C/C=C\C/C=C\C/C=C\C/C=C\CCC(=O)O [DHA, docosahexaenoic acid, reference compound]
LTP magnitude (EPSP amplitude, % of baseline) ([2]; per os, dose equivalent to 100 mg/kg of Synaptamide phosphonate): 129.5±10.2%

CCC=CCC=CCC=CCC=CCC=CCC=CCCC(=O)NC(COP(=O)(O)CCN)C(O)C=CCCCCCCCCCCCCC (stereo not shown) [SSL-X1]
distribution of SSL-X1 along the intestinal tract [3]: able to reach the colon | induction of MCP1, IL6 and COX-2 transcripts after SE [4]: partially prevented

CCC=CCC=CCC=CCC=CCC=CCC=CCCC(=O)NCCP(=O)(O)OCC(N)C(O)C=CCCCCCCCCCCCCC (stereo not shown) [SSLX2]
LTP magnitude (EPSP amplitude, % of baseline) ([2]; per os, dose equivalent to 10 mg/kg of Synaptamide phosphonate): 135.6±9.9% | LTP magnitude (EPSP amplitude, % of baseline) ([2]; per os, dose equivalent to 30 mg/kg of Synaptamide phosphonate): 172.9±6.5%

CC/C=C\C/C=C\C/C=C\C/C=C\C/C=C\C/C=C\CCC(=O)NCCOP(=O)(O)O [synaptamide phosphate]
LTP magnitude (EPSP amplitude, % of baseline) ([5]; bath application 100 nM): 144.5±9.39% | LTP magnitude (EPSP amplitude, % of baseline) [2, 11]: 168.9±7.1% | LTP magnitude (EPSP amplitude, % of baseline) [2, 10]: 162.3±10.8% | hydrosolubility relative to synaptamide [6]: more hydrosoluble than synaptamide

CC/C=C\C/C=C\C/C=C\C/C=C\C/C=C\C/C=C\CCC(=O)NCCO [synaptamide, N-Docosahexaenoylethanolamine, reference compound]
LPS-mediated induction of transcripts encoding neuroinflammatory markers ([7]; 2 mg/Kg synaptamide equivalent i.p. one minute after LPS 1 mg/Kg, 21-day-old rats): partially prevent | reduction of the Neuroinflammatory Index measured both in the hippocampus and the neocortex ([7]; 2 mg/Kg synaptamide equivalent i.p. one minute after LPS): ~ 50% | induction of IL1β mRNA in response to Pilo-SE [8]: reduced | LTP magnitude (EPSP amplitude, % of baseline) ([5]; bath application 100 nM): 166.8±12.2% | LTP magnitude (EPSP amplitude, % of baseline) ([5]; bath application 400 nM): 164.2±20.5% | LTP magnitude (EPSP amplitude, % of baseline) [2, 11]: 189.7±11.4% | LTP magnitude (EPSP amplitude, % of baseline) [2, 10]: 151.54±7.15% | LTP magnitude (EPSP amplitude, % of baseline) ([2]; 10 mg/kg i.p., 1 h after cessation of SE then daily): 195.2±8% | spatial learning in MWM (latency to find the platform) [9]: significantly increased spatial learning acquisition

eicosapentaenoic acid ethanolamine phosphonate [EPA-EA-Pn]
induction of IL-6 mRNA levels [1]: significantly reduced | LTP magnitude (EPSP amplitude, % of baseline) [2, 10]: 154.4±12.1%
